The values that follow come from the supplement of paper PMC10307832.

Common to all, as to test: relative viability (nuclei count vs DMSO), 5 days (fraction); higher = more cells survive
Compound in the assay “KN-93 + Bortezomib”: CN(C/C=C/C1=CC=C(C=C1)Cl)CC2=CC=CC=C2N(CCO)S(=O)(=O)C3=CC=C(C=C3)OC [KN-93] + CC(C)C[C@H](NC(=O)[C@H](Cc1ccccc1)NC(=O)c1cnccn1)B(O)O [Bortezomib] (partner 0.002 µM)
In short, it runs like this: (§1)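 Relative viability was taken as the ratio of nuclei in treated wells to nuclei in vehicle wells. Lung cancer cell lines in 1536-well plates received compounds by pin tool one day after seeding, either one drug alone or a fixed anchor-drug dose plus five library-drug doses (not always all listed) in √10 steps. Nuclei were counted on 4× images after 5 days of treatment, and values are medians of duplicate plates.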

Compound in the assay “KN-93 + OSI-027”: CN(C/C=C/C1=CC=C(C=C1)Cl)CC2=CC=CC=C2N(CCO)S(=O)(=O)C3=CC=C(C=C3)OC [KN-93] + COc1cccc2cc(-c3nc([C@H]4CC[C@H](C(=O)O)CC4)n4ncnc(N)c34)[nH]c12 [OSI-027] (partner 0.5 µM)
In short, it runs like this: as §1

Compound in the assay “KN-93 + Crizotinib”: CN(C/C=C/C1=CC=C(C=C1)Cl)CC2=CC=CC=C2N(CCO)S(=O)(=O)C3=CC=C(C=C3)OC [KN-93] + C[C@@H](Oc1cc(-c2cnn(C3CCNCC3)c2)cnc1N)c1c(Cl)ccc(F)c1Cl [Crizotinib] (partner 1 µM)
In outline:
as §1

Compound in the assay “KN-93 + Pemetrexed”: CN(C/C=C/C1=CC=C(C=C1)Cl)CC2=CC=CC=C2N(CCO)S(=O)(=O)C3=CC=C(C=C3)OC [KN-93] + Nc1nc2[nH]cc(CCc3ccc(C(=O)N[C@@H](CCC(=O)O)C(=O)O)cc3)c2c(=O)[nH]1 [Pemetrexed] (partner 0.2 µM)
In short, it runs like this: as §1

Compound in the assay “KN-93 + Decitabine”: CN(C/C=C/C1=CC=C(C=C1)Cl)CC2=CC=CC=C2N(CCO)S(=O)(=O)C3=CC=C(C=C3)OC [KN-93] + Nc1ncn([C@H]2C[C@H](O)[C@@H](CO)O2)c(=O)n1 [Decitabine] (partner 2 µM)
In short, it runs like this:
as §1

NCI-H3122: the relative viability in the assay with KN-93 + Bortezomib (first compound 0.08 µM) stood at 1.06; with KN-93 + Bortezomib (first compound 0.253 µM), 1.07; with KN-93 + Bortezomib (first compound 2.53 µM) it was 1.13; with KN-93 + Bortezomib (first compound 8 µM), 1.03; in the assay with KN-93 + OSI-027 (first compound 0.08 µM), 0.967; in the assay with KN-93 + OSI-027 (first compound 0.253 µM), 1.04. Moreover, the relative viability came out at 1.04 in the assay with KN-93 + OSI-027 (first compound 2.53 µM); 0.631 in the assay with KN-93 + OSI-027 (first compound 8 µM); 0.287 with KN-93 + Crizotinib (first compound 0.08 µM); 0.31 with KN-93 + Crizotinib (first compound 0.253 µM); 0.299 with KN-93 + Crizotinib (first compound 2.53 µM); 0.264 with KN-93 + Crizotinib (first compound 8 µM). In addition, the relative viability with KN-93 + Pemetrexed (first compound 0.08 µM) was 0.199; with KN-93 + Pemetrexed (first compound 0.253 µM), 0.194; in the assay with KN-93 + Pemetrexed (first compound 2.53 µM), 0.19; with KN-93 + Pemetrexed (first compound 8 µM), 0.341; with KN-93 + Decitabine (first compound 0.08 µM), 0.364; in the assay with KN-93 + Decitabine (first compound 0.253 µM) it was 0.398. Also, the values for the relative viability with KN-93 + Decitabine (first compound 2.53 µM) and with KN-93 + Decitabine (first compound 8 µM) were 0.359 and 0.367, respectively.

Regarding PC-3 [JPC-3], the relative viability was determined as 0.724 with KN-93 + Bortezomib (first compound 0.08 µM); 0.97 with KN-93 + Bortezomib (first compound 0.253 µM); 0.982 with KN-93 + Bortezomib (first compound 2.53 µM); 0.579 with KN-93 + Bortezomib (first compound 8 µM); 0.695 in the assay with KN-93 + OSI-027 (first compound 0.08 µM); 0.749 with KN-93 + OSI-027 (first compound 0.253 µM). Also, the relative viability with KN-93 + OSI-027 (first compound 2.53 µM) stood at 0.771; with KN-93 + OSI-027 (first compound 8 µM), 0.55; with KN-93 + Crizotinib (first compound 0.08 µM), 0.953; in the assay with KN-93 + Crizotinib (first compound 0.253 µM), 1.2; with KN-93 + Crizotinib (first compound 2.53 µM) it was 1.06; with KN-93 + Crizotinib (first compound 8 µM), 0.886. In addition, the relative viability with KN-93 + Pemetrexed (first compound 0.08 µM) was 1.15; in the assay with KN-93 + Pemetrexed (first compound 0.253 µM) it was 1.37; in the assay with KN-93 + Pemetrexed (first compound 2.53 µM), 0.898; in the assay with KN-93 + Pemetrexed (first compound 8 µM), 0.858; in the assay with KN-93 + Decitabine (first compound 0.08 µM), 0.786; in the assay with KN-93 + Decitabine (first compound 0.253 µM) it was 0.781. Further, the results for the relative viability in the assay with KN-93 + Decitabine (first compound 2.53 µM) and in the assay with KN-93 + Decitabine (first compound 8 µM) were 0.919 and 0.739, respectively.

In the case of PC-14, the relative viability in the assay with KN-93 + Bortezomib (first compound 0.08 µM) was 0.686; in the assay with KN-93 + Bortezomib (first compound 0.253 µM), 0.899; in the assay with KN-93 + Bortezomib (first compound 2.53 µM) it was 0.933; in the assay with KN-93 + Bortezomib (first compound 8 µM), 0.734; with KN-93 + OSI-027 (first compound 0.08 µM), 0.522; with KN-93 + OSI-027 (first compound 0.253 µM) it was 0.892. For the same cell line, the relative viability in the assay with KN-93 + OSI-027 (first compound 2.53 µM) stood at 0.806; in the assay with KN-93 + OSI-027 (first compound 8 µM), 0.519; with KN-93 + Crizotinib (first compound 0.08 µM), 0.89; with KN-93 + Crizotinib (first compound 0.253 µM) it was 0.842; with KN-93 + Crizotinib (first compound 2.53 µM), 0.953; with KN-93 + Crizotinib (first compound 8 µM) it was 0.585. The relative viability was 0.154 with KN-93 + Pemetrexed (first compound 0.08 µM); 0.126 with KN-93 + Pemetrexed (first compound 0.253 µM); 0.139 in the assay with KN-93 + Pemetrexed (first compound 2.53 µM); 0.131 with KN-93 + Pemetrexed (first compound 8 µM); 0.205 with KN-93 + Decitabine (first compound 0.08 µM); 0.2 with KN-93 + Decitabine (first compound 0.253 µM). Further, the relative viability with KN-93 + Decitabine (first compound 2.53 µM) turned out to be 0.244; with KN-93 + Decitabine (first compound 8 µM), 0.194.

In the case of RERF-LC-KJ, the relative viability in the assay with KN-93 + Bortezomib (first compound 0.08 µM) is 1.07; with KN-93 + Bortezomib (first compound 0.253 µM) it was 1.2; with KN-93 + Bortezomib (first compound 2.53 µM), 1.09; with KN-93 + Bortezomib (first compound 8 µM) it was 0.928; in the assay with KN-93 + OSI-027 (first compound 0.08 µM), 0.557; with KN-93 + OSI-027 (first compound 0.253 µM), 0.509. In addition, the relative viability in the assay with KN-93 + OSI-027 (first compound 2.53 µM) amounted to 0.588; in the assay with KN-93 + OSI-027 (first compound 8 µM), 0.353; in the assay with KN-93 + Crizotinib (first compound 0.08 µM) it was 0.803; with KN-93 + Crizotinib (first compound 0.253 µM), 0.848; with KN-93 + Crizotinib (first compound 2.53 µM), 0.917; with KN-93 + Crizotinib (first compound 8 µM), 0.639. The relative viability with KN-93 + Pemetrexed (first compound 0.08 µM) turned out to be 0.504; in the assay with KN-93 + Pemetrexed (first compound 0.253 µM), 0.485; in the assay with KN-93 + Pemetrexed (first compound 2.53 µM), 0.46; with KN-93 + Pemetrexed (first compound 8 µM) it was 0.461; with KN-93 + Decitabine (first compound 0.08 µM) it was 0.627; with KN-93 + Decitabine (first compound 0.253 µM), 0.753. In addition, the relative viability with KN-93 + Decitabine (first compound 2.53 µM) was found to be 0.722; in the assay with KN-93 + Decitabine (first compound 8 µM), 0.346.

As for SK-LU-1, the relative viability in the assay with KN-93 + Bortezomib (first compound 0.08 µM) was 1.58; in the assay with KN-93 + Bortezomib (first compound 0.253 µM) it was 1.02; with KN-93 + Bortezomib (first compound 2.53 µM), 1.59; with KN-93 + Bortezomib (first compound 8 µM), 0.591; in the assay with KN-93 + OSI-027 (first compound 0.08 µM), 0.334; in the assay with KN-93 + OSI-027 (first compound 0.253 µM) it was 0.328. The relative viability with KN-93 + OSI-027 (first compound 2.53 µM) was determined as 0.343; in the assay with KN-93 + OSI-027 (first compound 8 µM) it was 0.224; with KN-93 + Crizotinib (first compound 0.08 µM), 0.834; with KN-93 + Crizotinib (first compound 0.253 µM), 1.26; in the assay with KN-93 + Crizotinib (first compound 2.53 µM), 0.915; with KN-93 + Crizotinib (first compound 8 µM), 0.673. Further, the relative viability with KN-93 + Pemetrexed (first compound 0.08 µM) amounted to 0.967; in the assay with KN-93 + Pemetrexed (first compound 0.253 µM), 1.19; with KN-93 + Pemetrexed (first compound 2.53 µM) it was 1.16; in the assay with KN-93 + Pemetrexed (first compound 8 µM) it was 0.688; in the assay with KN-93 + Decitabine (first compound 0.08 µM), 0.627; with KN-93 + Decitabine (first compound 0.253 µM), 0.702. In addition, the relative viability with KN-93 + Decitabine (first compound 2.53 µM) is 0.633; with KN-93 + Decitabine (first compound 8 µM), 0.364.

Turning to SW 1573, the relative viability with KN-93 + Bortezomib (first compound 0.08 µM) was determined as 1.04; in the assay with KN-93 + Bortezomib (first compound 0.253 µM), 1.23; in the assay with KN-93 + Bortezomib (first compound 2.53 µM), 0.973; with KN-93 + Bortezomib (first compound 8 µM) it was 0.763; in the assay with KN-93 + OSI-027 (first compound 0.08 µM), 0.473; with KN-93 + OSI-027 (first compound 0.253 µM), 0.689. Also, the relative viability with KN-93 + OSI-027 (first compound 2.53 µM) came to 0.584; with KN-93 + OSI-027 (first compound 8 µM), 0.252; with KN-93 + Crizotinib (first compound 0.08 µM), 0.766; in the assay with KN-93 + Crizotinib (first compound 0.253 µM), 0.926; in the assay with KN-93 + Crizotinib (first compound 2.53 µM), 0.822; in the assay with KN-93 + Crizotinib (first compound 8 µM), 0.33. The relative viability in the assay with KN-93 + Pemetrexed (first compound 0.08 µM) worked out at 1.07; with KN-93 + Pemetrexed (first compound 0.253 µM), 0.916; with KN-93 + Pemetrexed (first compound 2.53 µM), 0.981; in the assay with KN-93 + Pemetrexed (first compound 8 µM), 0.307; in the assay with KN-93 + Decitabine (first compound 0.08 µM) it was 0.494; in the assay with KN-93 + Decitabine (first compound 0.253 µM) it was 0.615. Further, the relative viability in the assay with KN-93 + Decitabine (first compound 2.53 µM) stood at 0.466; in the assay with KN-93 + Decitabine (first compound 8 µM), 0.212.

Regarding UMC-11, the relative viability with KN-93 + Bortezomib (first compound 0.253 µM) was found to be 0.919; in the assay with KN-93 + Bortezomib (first compound 2.53 µM), 0.799; in the assay with KN-93 + Bortezomib (first compound 8 µM) it was 0.197; in the assay with KN-93 + OSI-027 (first compound 0.08 µM), 0.442; in the assay with KN-93 + OSI-027 (first compound 0.253 µM), 0.526; with KN-93 + OSI-027 (first compound 2.53 µM), 0.488. For the same cell line, the relative viability stood at 0.314 in the assay with KN-93 + OSI-027 (first compound 8 µM); 0.901 with KN-93 + Crizotinib (first compound 0.253 µM); 0.413 in the assay with KN-93 + Crizotinib (first compound 2.53 µM); 0.457 in the assay with KN-93 + Crizotinib (first compound 8 µM); 0.697 in the assay with KN-93 + Pemetrexed (first compound 0.08 µM); 1.01 with KN-93 + Pemetrexed (first compound 0.253 µM). In addition, the relative viability in the assay with KN-93 + Pemetrexed (first compound 2.53 µM) stood at 1.05; with KN-93 + Pemetrexed (first compound 8 µM) it was 0.467; with KN-93 + Decitabine (first compound 0.08 µM) it was 0.594; with KN-93 + Decitabine (first compound 0.253 µM), 0.612; with KN-93 + Decitabine (first compound 2.53 µM) it was 0.634; with KN-93 + Decitabine (first compound 8 µM) it was 0.461.
